Assay results taken from ChEMBL document CHEMBL3872214, “Synthesis and evaluation of in vivo antioxidant, in vitro antibacterial, MRSA and antifungal activity of novel substituted isatin N-(2,3,4,6-tetra-O-acetyl-β-d-glucopyranosyl)thiosemicarbazones” (Eur J Med Chem, 2016).
Converted amounts (≈) assume the structure as drawn.

Experiments:
Format in all cases: functional
[1] = Antifungal activity against Saccharomyces cerevisiae SH20 after 72 hrs by agar dilution method
Candida albicans = assay: Antifungal activity against Candida albicans ATCC 7754 after 72 hrs by agar dilution method; settings: ATCC 7754, 72 h
Aspergillus niger = assay: Antifungal activity against Aspergillus niger 439 after 72 hrs by agar dilution method; settings: Aspergillus niger, 439, 72 h
[2] = Antifungal activity against Fusarium oxysporum M42 after 72 hrs by agar dilution method
Rattus norvegicus [3] = assay: Antioxidant activity in CCL4-intoxicated Wistar albino rat assessed as liver cytosolic catalase activity per mg protein at 100 mg/kg, ip administered for 7 consecutive days after DL-alpha-tocopherol acetate treatment followed by CCL4 dosing measured after 24 hrs by H2O2 based assay (reference value: 220.15 +/- 11.43 U)
Staphylococcus aureus [4] = assay: Antibacterial activity against methicillin-resistant Staphylococcus aureus 198-3 after 18 to 20 hrs by two-fold microbroth dilution method
Klebsiella pneumoniae = assay: Antibacterial activity against Klebsiella pneumoniae ATCC 4352 after 18 to 20 hrs by two-fold microbroth dilution method
[5] = tested on: Staphylococcus epidermidis; assay: Antibacterial activity against Staphylococcus epidermidis ATCC 12228 after 18 to 20 hrs by two-fold microbroth dilution method
Bacillus subtilis = assay: Antibacterial activity against Bacillus subtilis ATCC 11774 after 18 to 20 hrs by two-fold microbroth dilution method
Staphylococcus aureus [6] = assay: Antibacterial activity against methicillin-resistant Staphylococcus aureus 198-2 after 18 to 20 hrs by two-fold microbroth dilution method
Staphylococcus aureus [7] = assay: Antibacterial activity against Staphylococcus aureus ATCC 11632 after 18 to 20 hrs by two-fold microbroth dilution method
Rattus norvegicus [8] = assay: Antioxidant activity in CCL4-intoxicated Wistar albino rat assessed as liver cytosolic superoxide dismutase activity per mg protein at 100 mg/kg, ip administered for 7 consecutive days after DL-alpha-tocopherol acetate treatment followed by CCL4 dosing measured after 24 hrs by xanthine based assay (reference value: 5.27 +/- 0.22 U)
Pseudomonas aeruginosa = assay: Antibacterial activity against Pseudomonas aeruginosa […] after 18 to 20 hrs by two-fold microbroth dilution method
Klebsiella aerogenes = assay: Antibacterial activity against Enterobacter aerogenes ATCC 13048 after 18 to 20 hrs by two-fold microbroth dilution method
Escherichia coli = assay: Antibacterial activity against Escherichia coli ATCC 25922 after 18 to 20 hrs by two-fold microbroth dilution method
Staphylococcus aureus [9] = assay: Antibacterial activity against methicillin-resistant Staphylococcus aureus 198-1 after 18 to 20 hrs by two-fold microbroth dilution method
Rattus norvegicus [10] = assay: Antioxidant activity in CCL4-intoxicated Wistar albino rat assessed as liver cytosolic glutathione peroxidase activity per mg protein at 100 mg/kg, ip administered for 7 consecutive days after DL-alpha-tocopherol acetate treatment followed by CCL4 dosing measured after 24 hrs by H2O2 based spectrophotometric analysis (reference value: 0.28 +/- 0.01 U)

SMILES | MIC [1] [µM] | MIC (Candida albicans) [µM] | MIC (Aspergillus niger) [µM] | MIC [2] [µM] | Activity (Rattus norvegicus [3]) [U] | MIC (Staphylococcus aureus [4]) [µM] | MIC (Klebsiella pneumoniae) [µM] | MIC [5] [µM] | MIC (Bacillus subtilis) [µM] | MIC (Staphylococcus aureus [6]) [µM] | MIC (Staphylococcus aureus [7]) [µM] | Activity (Rattus norvegicus [8]) [U] | MIC (Pseudomonas aeruginosa) [µM] | MIC (Klebsiella aerogenes) [µM] | MIC (Escherichia coli) [µM] | MIC (Staphylococcus aureus [9]) [µM] | Activity (Rattus norvegicus [10]) [U]
Clc1ccc(COC(Cn2ccnc2)c2ccc(Cl)cc2Cl)c(Cl)c1 (centres undefined) [MICONAZOLE] | 3.12 (≈ 1.3 µg/mL) | 3.12 (≈ 1.3 µg/mL) | 1.56 (≈ 0.649 µg/mL) | 3.12 (≈ 1.3 µg/mL) | – | – | – | – | – | – | – | – | – | – | – | – | –
CC(=O)OC[C@H]1O[C@@H](NC(=S)N/N=C2/C(=O)N(CCc3ccccc3)c3ccccc32)[C@H](OC(C)=O)[C@@H](OC(C)=O)[C@@H]1OC(C)=O | 400 (≈ 262 µg/mL) | 400 (≈ 262 µg/mL) | 200 (≈ 131 µg/mL) | 200 (≈ 131 µg/mL) | 260.61 | 200 (≈ 131 µg/mL) | 100 (≈ 65.5 µg/mL) | 200 (≈ 131 µg/mL) | 200 (≈ 131 µg/mL) | 200 (≈ 131 µg/mL) | 200 (≈ 131 µg/mL) | 8.45 | 100 (≈ 65.5 µg/mL) | 100 (≈ 65.5 µg/mL) | 100 (≈ 65.5 µg/mL) | 200 (≈ 131 µg/mL) | 1.73
CC(=O)OC[C@H]1O[C@@H](NC(=S)N/N=C2/C(=O)Nc3ccc(C)cc32)[C@H](OC(C)=O)[C@@H](OC(C)=O)[C@@H]1OC(C)=O | 25 (≈ 14.1 µg/mL) | 100 (≈ 56.5 µg/mL) | 100 (≈ 56.5 µg/mL) | 100 (≈ 56.5 µg/mL) | 258.47 | 12.5 (≈ 7.06 µg/mL) | 25 (≈ 14.1 µg/mL) | 12.5 (≈ 7.06 µg/mL) | 25 (≈ 14.1 µg/mL) | 12.5 (≈ 7.06 µg/mL) | 12.5 (≈ 7.06 µg/mL) | 5.91 | 25 (≈ 14.1 µg/mL) | 25 (≈ 14.1 µg/mL) | 25 (≈ 14.1 µg/mL) | 12.5 (≈ 7.06 µg/mL) | 1.7
CC(=O)OC[C@H]1O[C@@H](NC(=S)N/N=C2/C(=O)Nc3ccccc32)[C@H](OC(C)=O)[C@@H](OC(C)=O)[C@@H]1OC(C)=O | 100 (≈ 55.1 µg/mL) | 200 (≈ 110 µg/mL) | 100 (≈ 55.1 µg/mL) | 100 (≈ 55.1 µg/mL) | 295.32 | 200 (≈ 110 µg/mL) | 50 (≈ 27.5 µg/mL) | 100 (≈ 55.1 µg/mL) | 100 (≈ 55.1 µg/mL) | 200 (≈ 110 µg/mL) | 200 (≈ 110 µg/mL) | 5.81 | 50 (≈ 27.5 µg/mL) | 50 (≈ 27.5 µg/mL) | 50 (≈ 27.5 µg/mL) | 200 (≈ 110 µg/mL) | 1.77
CCCCN1C(=O)/C(=N/NC(=S)N[C@@H]2O[C@H](COC(C)=O)[C@@H](OC(C)=O)[C@H](OC(C)=O)[C@H]2OC(C)=O)c2ccccc21 | 100 (≈ 60.7 µg/mL) | 100 (≈ 60.7 µg/mL) | 100 (≈ 60.7 µg/mL) | 100 (≈ 60.7 µg/mL) | 377.61 | 100 (≈ 60.7 µg/mL) | 12.5 (≈ 7.58 µg/mL) | 100 (≈ 60.7 µg/mL) | 100 (≈ 60.7 µg/mL) | 100 (≈ 60.7 µg/mL) | 100 (≈ 60.7 µg/mL) | 9.89 | 12.5 (≈ 7.58 µg/mL) | 12.5 (≈ 7.58 µg/mL) | 12.5 (≈ 7.58 µg/mL) | 100 (≈ 60.7 µg/mL) | 0.93
CC(=O)OC[C@H]1O[C@@H](NC(=S)N/N=C2/C(=O)Nc3ccc([N+](=O)[O-])cc32)[C@H](OC(C)=O)[C@@H](OC(C)=O)[C@@H]1OC(C)=O | 100 (≈ 59.6 µg/mL) | 100 (≈ 59.6 µg/mL) | 100 (≈ 59.6 µg/mL) | 100 (≈ 59.6 µg/mL) | 283.53 | 200 (≈ 119 µg/mL) | 50 (≈ 29.8 µg/mL) | 100 (≈ 59.6 µg/mL) | 100 (≈ 59.6 µg/mL) | 200 (≈ 119 µg/mL) | 200 (≈ 119 µg/mL) | 6.45 | 50 (≈ 29.8 µg/mL) | 50 (≈ 29.8 µg/mL) | 50 (≈ 29.8 µg/mL) | 200 (≈ 119 µg/mL) | 1.89
CC(=O)OC[C@H]1O[C@@H](NC(=S)N/N=C2/C(=O)Nc3ccc(Br)cc32)[C@H](OC(C)=O)[C@@H](OC(C)=O)[C@@H]1OC(C)=O | 12.5 (≈ 7.87 µg/mL) | 12.5 (≈ 7.87 µg/mL) | 6.25 (≈ 3.93 µg/mL) | 12.5 (≈ 7.87 µg/mL) | 394.43 | 3.12 (≈ 1.96 µg/mL) | 50 (≈ 31.5 µg/mL) | 6.25 (≈ 3.93 µg/mL) | 6.25 (≈ 3.93 µg/mL) | 1.56 (≈ 0.982 µg/mL) | 6.25 (≈ 3.93 µg/mL) | 10.47 | 50 (≈ 31.5 µg/mL) | 50 (≈ 31.5 µg/mL) | 50 (≈ 31.5 µg/mL) | 1.56 (≈ 0.982 µg/mL) | 0.32
CC(=O)OC[C@H]1O[C@@H](NC(=S)N/N=C2/C(=O)Nc3ccc(Cl)cc32)[C@H](OC(C)=O)[C@@H](OC(C)=O)[C@@H]1OC(C)=O | 12.5 (≈ 7.31 µg/mL) | 12.5 (≈ 7.31 µg/mL) | 12.5 (≈ 7.31 µg/mL) | 12.5 (≈ 7.31 µg/mL) | 390.63 | 0.78 (≈ 0.456 µg/mL) | 50 (≈ 29.2 µg/mL) | 6.25 (≈ 3.66 µg/mL) | 6.25 (≈ 3.66 µg/mL) | 0.78 (≈ 0.456 µg/mL) | 6.25 (≈ 3.66 µg/mL) | 10.2 | 50 (≈ 29.2 µg/mL) | 50 (≈ 29.2 µg/mL) | 50 (≈ 29.2 µg/mL) | 0.78 (≈ 0.456 µg/mL) | 0.31
CC(=O)OC[C@H]1O[C@@H](NC(=S)N/N=C2/C(=O)Nc3ccc(F)cc32)[C@H](OC(C)=O)[C@@H](OC(C)=O)[C@@H]1OC(C)=O | 6.25 (≈ 3.55 µg/mL) | 6.25 (≈ 3.55 µg/mL) | 12.5 (≈ 7.11 µg/mL) | 12.5 (≈ 7.11 µg/mL) | 379.56 | 1.56 (≈ 0.887 µg/mL) | 50 (≈ 28.4 µg/mL) | 3.12 (≈ 1.77 µg/mL) | 3.12 (≈ 1.77 µg/mL) | 3.12 (≈ 1.77 µg/mL) | 3.12 (≈ 1.77 µg/mL) | 9.84 | 50 (≈ 28.4 µg/mL) | 50 (≈ 28.4 µg/mL) | 50 (≈ 28.4 µg/mL) | 1.56 (≈ 0.887 µg/mL) | 0.39
CN[C@H](CC(C)C)C(=O)N[C@H]1C(=O)N[C@@H](CC(N)=O)C(=O)N[C@H]2C(=O)N[C@H]3C(=O)N[C@H](C(=O)N[C@H](C(=O)O)c4cc(O)cc(O)c4-c4cc3ccc4O)[C@H](O)c3ccc(c(Cl)c3)Oc3cc2cc(c3O[C@@H]2O[C@H](CO)[C@@H](O)[C@H](O)[C@H]2O[C@H]2C[C@](C)(N)[C@H](O)[C@H](C)O2)Oc2ccc(cc2Cl)[C@H]1O [VANCOMYCIN] | – | – | – | – | – | 1.65 (≈ 2.39 µg/mL) | – | 2.1 (≈ 3.04 µg/mL) | 0.83 (≈ 1.2 µg/mL) | 1.65 (≈ 2.39 µg/mL) | 1.21 (≈ 1.75 µg/mL) | – | – | – | – | 1.65 (≈ 2.39 µg/mL) | –
Oc1ccc(/C=C/c2cc(O)cc(O)c2)cc1 [RESVERATROL] | – | – | – | – | 282.12 | – | – | – | – | – | – | 7.31 | – | – | – | – | 0.33
COc1cccc(OC)c1C(=O)N[C@@H]1C(=O)N2[C@@H]1SC(C)(C)[C@@H]2C(=O)O [METHICILLIN] | – | – | – | – | – | > 200 | – | – | – | > 200 | – | – | – | – | – | > 200 | –
O=C(O)c1cn(C2CC2)c2cc(N3CCNCC3)c(F)cc2c1=O [CIPROFLOXACIN] | – | – | – | – | – | – | 1.56 (≈ 0.517 µg/mL) | 3.12 (≈ 1.03 µg/mL) | 3.12 (≈ 1.03 µg/mL) | – | 3.12 (≈ 1.03 µg/mL) | – | 1.56 (≈ 0.517 µg/mL) | 1.56 (≈ 0.517 µg/mL) | 1.56 (≈ 0.517 µg/mL) | – | –
